The values that follow come from PMC11292626, “5-Fluoroindole Reduces the Bacterial Burden in a Murine Model of Mycobacterium tuberculosis Infection” (ACS Omega, 2024).

Converted amounts (≈) assume the structure as drawn.

What all share (experiment): microbe, parasite or virus in culture
Holding throughout (assay type): cell-based

For test [1], the system named is M. tuberculosis PT12 strain. Particulars: Mycobacterium tuberculosis, PT12STRAIN, read-out: MIC PT12.
The test system of test [2] is M. tuberculosis PT20 strain. The settings on record: Mycobacterium tuberculosis, PT20STRAIN, read-out: MIC PT20.
For test [3], the system named is M. tuberculosis PT2 strain. Particulars: Mycobacterium tuberculosis, PT2STRAIN, read-out: MIC PT2.

Take `Fc1ccc2[nH]ccc2c1` [Compound 1, 5-Fluoroindole]: the MIC in test [1], in test [2] and in test [3] was 4.7 µM (≈ 0.635 µg/mL) in each case.

Regarding `NNC(=O)c1ccncc1` [INH, isoniazid, reference compound], the MIC in test [1] stood at 146 µM (≈ 20 µg/mL).
